# Legend:
# IκB Kinase (IκK) = assay: IκK activity ELISA in YAMC cells exposed to C. rodentium; format: cell-based, mouse; details: FIG. 2D
# Method: Akt kinase can phosphorylate and activate IκB Kinase (IκK), which leads to the de-repression of NFκB by IκB. As described above, COG peptides reduce phosphorylation of IκB and subsequent activation of NFκB induced by a Toll-like receptor 4 agonist (LPS). To determine if COG peptides also affect IκK activation, IκK activity was assessed in cytoplasmic cellular lysates of young adult mouse colon (YAMC) cells exposed to C. rodentium bacteria alone or in the presence of COG112 (SEQ ID NO: 2). IκK activity was measured using a specific ELISA assay (K-LISATM detection kit, Calbiochem/EMD Biosciences). Cytosolic cell extracts were incubated in glutathionine coated wells of a 96-well plate with a glutathione S transferase (GST)-tagged IκB-α fusion polypeptide substrate that includes the Ser32 and Ser36 IκB-α kinase phosphorylation sites. Phosphorylated GST-IκB-α substrate was detected using horseradish peroxidase-conjugated anti-phospho-IκB-α antibody. Optical density proportional to kinase activity was measured at 450 nm in a plate reader. The time course of IκK activation induced by C. rodentium in the presence (closed squares) or absence (open squares) of COG112 is shown in FIG. 2D. Time 0 indicates cells that were not stimulated with C. rodentium.
# B-CLL cells [1] = assay: Annexin V / propidium iodide apoptosis assay on B-CLL cells; format: cell-based, human
# Method: In a first series of experiments, apoptosis assays using Annexin V staining were performed on freshly isolated B-CLL cells to determine if COG112 could reverse the anti-apoptotic state in these cells and induce apoptosis. […] Apoptosis was measured using the Annexin V-FITC apoptosis detection kit (BD Biosciences-Pharmingen). COG-treated and untreated cells were Annexin V-FITC- and propidium iodide-stained for 15 minutes in 1× binding buffer (10 mM HEPES, pH 7.4, 140 mM NaCl, 2.5 mM CaCl2) and analyzed by flow cytometry. One aliquot of cells was treated with 100 μg/mL etoposide as a positive control for apoptosis induction.
# [2] = Cytotoxicity on PBMC from normal volunteers; format: cell-based; details: human, FIG. 4
# BCR/ABL fusion protein = assay: Phospho-BCR/ABL Western blot in K562 cells; format: cell-based; details: COG112 0.5 or 1 μM, 24 hours, FIG. 8A
# Method: As discussed above, constitutive activation of the BCR/ABL fusion protein produced by the Philadelphia chromosome (e.g. product of the t(9;22)(q34;q11) translocation) is the primary causative factor in the persistent signaling that leads to unrestrained cell proliferation and survival in CML. […] Cell lysates were prepared and subject to Western blot analysis to detect activated phospho-BCR/ABL.
# Eμ-TCL1 transgenic mice = assay: CLL in Eμ-TCL1 transgenic mice treated with COG112; format: in vivo, mouse
# Source text: In the Eμ-TCL1 transgenic mouse model, the TCL1 gene is placed under control of a B-cell-specific IgVH promoter and IgH-Eμ enhancer. These mice develop normally into adulthood but later develop enlarged spleens, livers, and lymph nodes that are accompanied by high blood lymphocyte counts. The mice eventually die prematurely as the leukemic cells accumulate along with development of advanced lymphoadenopathy Importantly, the accumulated B-cells in these transgeneic TCL1 mice are G0-1 arrested and express CD19+/CD5+/IgM+ just as the human CLL cells (Bichi et al. (2002) Proc Natl Acad Sci USA, Vol. 99: 6955-6960). As further validation of these Eμ-TCL1 transgenic mice as an effective model of human CLL, CLL symptoms in the TCL1 transgenic mice improve following administration of fludarabine, a clinically used anti-CLL therapeutic. […] The effect of COG112 on CLL cell production and life expectancy in the Eμ-TCL1 transgenic mouse model of CLL is evaluated.
# Animals (n=6) are treated with either 10 mg/kg of COG112 or a vehicle control daily by subcutaneous injection. After 15 days of treatment, blood is collected by retro-orbital bleeds and white bloods cells quantitated. White-blood cell counts are expected to be reduced in COG112-treated animals relative to the vehicle controls.
# At the initiation of treatment, blood is drawn to determine baseline CD5+/CD19+ CLL cell counts and groups of animals (n=20) are treated with a vehicle control (lactated Ringer's solution) or COG112 at doses of 4.0, 1.0, or 0.25 mg/kg. COG112 or the vehicle control is delivered by intraperitoneal injection at a volume of 10 mL/kg. Animals receive injections daily Monday through Friday so that 5 doses are administered per week for 5 weeks (35 days of total treatment). Disease course is monitored by survival, total blood leukocyte and lymphocyte count, and CD19+/CD5+ cell count weekly.
# Blood is collected from each mouse on a weekly basis by retro-orbital bleeds for determination of total blood leukocyte and lymphocyte counts as well as CD19+/CD5+ cell counts to assess the leukemia burden. After 5 weeks (35 days of treatment), mice are euthanized and the post treatment leukemia burden is measured by cell counting, spleen weight, and histological analysis of bone marrow, spleen, liver, and lymph nodes.
# B-CLL cells [3] = assay: Cytotoxicity on B-CLL cells from CLL patients (MTS assay)
# Method: To determine whether COG peptides could counteract the overactivation of the Akt/NFkB pathway in B-CLL cells and effectively induce apoptosis, cytotoxicity testing was performed on freshly isolated B-CLL cells from CLL patients with COG peptides. Blood from CLL patients was collected and CD5+/CD19+ CLL cells were isolated using the RosetteSep™ Human B Cell Enrichment Cocktail. This method depletes whole blood of T cells, monocytes, and NK cells using a proprietary antibody cocktail containing anti-CD14, anti-CD2 and anti-CD16 antibodies to remove T cells, monocytes, and NK cells, respectively. The antibody cocktail crosslinks unwanted cells in human whole blood to multiple red blood cells forming immunorosettes thereby increasing the density of the rosetted cells, such that they pellet along with the free RBCs when centrifuged over a buoyant density medium such as Ficoll-Paque®. The highly enriched B-cell or B-CLL cells are left at the interface between Ficoll and the plasma.
# COG peptides were applied to the isolated B-CLL cells (0.25×10^6 cells/well in a 96 well plate) for 72 hours, after which viable cells were assessed using the MTS assay ([…]).
# Additional B-CLL cells and peripheral blood mononuclear cells (PBMC; i.e., normal B cells) were isolated from leukemia patients and normal volunteers, respectively, and were treated with a range of COG112 concentrations.
# [4] = 4.0, 1.0 or 0.25 mg/kg intraperitoneal, 5 weeks, versus vehicle
substance,measurement,setting,value
Ac-RQIKIWFQNRRMKWKKCLRVRLASHLRKLRKRLL-NH2 (N-terminus and C-terminus assumed) [COG112],IκK activity,IκB Kinase (IκK),substantially reduced
same,ED50 for induction of apoptosis,"B-CLL cells [1]; B-CLL cells, Annexin V",closely mirrored the ED50 for cytotoxicity
same,apoptosis (Annexin-V+/propidium iodide+ cells),"B-CLL cells [1]; increasing concentrations of COG112, flow cytometry, FIG. 5",dose-dependent increase in apoptosis
same,EC50,[2],~20 µM
same,level of phosphorylated BCR/ABL,BCR/ABL fusion protein,dose-dependent reduction
same,white-blood cell counts,"Eμ-TCL1 transgenic mice; 10 mg/kg daily subcutaneous, 15 days, relative to vehicle",reduced
same,CD19+/CD5+ cell counts,Eμ-TCL1 transgenic mice; [4],dose-dependent reduction
same,CLL burden by histological analysis,Eμ-TCL1 transgenic mice; [4],dose-dependent reduction
same,cumulative survival,Eμ-TCL1 transgenic mice; [4],dose-dependent increase
same,spleen weight,Eμ-TCL1 transgenic mice; [4],dose-dependent reduction
same,Fold Change,B-CLL cells [3]; EC50 relative to COG056 control,58.6
same,EC50,"B-CLL cells [3]; human, 72 hours",0.22 ± 0.13 µM
